Tested on: Erysiphe [syn. Blumeria] graminis forma specialis. tritici
Test: Activity against mildew of wheat (protective spray test on potted wheat seedlings)
Assay type: in vivo
Conditions: wheat seedlings cv. Kanzler, rated after 7 days
Procedure: The active compounds, separately or together, were formulated as a 10% emulsion in a mixture of 63% by weight of cyclohexanone and 27% by weight of emulsifier, and diluted with water to the desired concentration.
Evaluation was carried out by determining the infected leaf areas in percent. These percentages were converted into efficacies. The efficacy (w) was calculated as follows using Abbot's formula: [formula] • α corresponds to the fungal infection of the treated plants in % and • β corresponds to the fungal infection of the untreated (control) plants in %
An efficacy of 0 means that the infection level of the treated plants corresponds to that of the untreated control plants; an efficacy of 100 means that the treated plants were not infected.
The expected efficacies of the mixtures of the active compounds were determined using Colby's formula [R. S. Colby, Weeds 15, 20-22 (1967)] and compared with the observed efficacies. E =x+y−x·y/100 Colby's formula: • E expected efficacy, expressed in % of the untreated control, when using the mixture of the active compounds A and B at the concentrations a and b • x efficacy, expressed in % of the untreated control, when using active compound A at a concentration of a • y efficacy, expressed in % of the untreated control, when using active compound B at a concentration of b
Activity Against Mildew of Wheat Caused by Erysiphe [syn. Blumeria] graminis forma Specialis. tritici
Leaves of wheat seedlings of the cultivar “Kanzler” grown in pots were sprayed to runoff point with an aqueous preparation of active compound which had been prepared from a stock solution comprising 10% of active compound, 85% of cyclohexanone and 5% of emulsifier. 24 hours after the spray coating had dried on, the plants were dusted with spores of mildew of wheat (Erysiphe [syn. Blumeria] graminis forma specialis. tritici). The test plants were then placed in a greenhouse at 20-24° C. and 60-90% relative atmospheric humidity. After 7 days, the extent of the mildew development was determined visually in % infection of the entire leaf area.
The visually determined values for the percentage of infected leaf areas were converted into efficacies in % of the untreated control. An efficacy of 0 means the same degree of infection as in the untreated control, an efficacy of 100 means 0% infection. The expected efficacies for combinations of active compounds were determined using Colby's formula (Colby, S. R. (Calculating synergistic and antagonistic responses of herbicide Combinations”, Weeds, 15, p. 20-22, 1967) and compared to the observed effacacies.

[1] = 1 ppm in the spray liquor, inoculated 24 h after spraying

Measured: Efficacy in % of the untreated control

CO/C=C(/C(=O)OC)c1ccccc1Oc1cc(Oc2ccccc2C#N)ncn1 [azoxystrobin]
0%: 0.015 ppm in the spray liquor | 0.25 ppm in the spray liquor | [1]

CO/N=C(/C(=O)OC)c1ccccc1COc1ccccc1C [kresoxim-methyl]
0%: 0.06 ppm in the spray liquor | 0.25 ppm in the spray liquor | [1]

COC(=O)N(OC)c1ccccc1COc1ccn(-c2ccc(Cl)cc2)n1 [pyraclostrobin]
0%: 0.06 ppm in the spray liquor | 0.25 ppm in the spray liquor | [1]

Reference: patent US20050182051A1, “Fungicidal mixtures based on benzamidoxime derivative and a strobilurin derivative” (priority 2002, published 2005)
